From article PMC8510478, “Characterization and Identification of Bioactive Polyphenols in the Trapa bispinosa Roxb. Pericarp Extract” (Molecules, 2021)
Where a name gives a salt, the structure may show the parent alone. Read-outs that look alike come from different tables or passages of the source.

Assays:
α-glucosidase [1] = assay: α-Glucosidase inhibitory activity (rat intestinal acetone powder, maltose substrate); format: biochemical; settings: for IC50: maltose, pH 7, 37 °C, means ± SE (n = 3), read-out: Inhibitory Effects on α-Glucosidase Activity IC50
Procedure: The α-glucosidase inhibitory activity was tested according to the previously described method by Kirino et al. with a slight modification. Rat intestinal acetone powder was mixed with 0.1 M phosphate buffer (pH 7) and centrifuged at 18,500× g and 4 °C for 20 min. The resulting supernatant was collected and used as a glucosidase solution for enzymatic assay. Each sample solution (160 μL) was mixed with 250 mM maltose solution (20 μL) in 0.2 M phosphate buffer (pH 7) and then incubated at 37 °C for 3 min. After incubation, the enzymatic reaction was started by adding glucosidase solution from the rat intestine (20 μL) and the resulting reaction mixtures were further incubated at 37 °C for 15 min. After 15 min, the reaction mixtures were immediately heated at 100 °C for 5 min to stop the reaction followed by cooling on ice for 5 min. The amount of glucose in the reaction mixtures was determined using the F-Kit glucose (Roche diagnostics, Co., Tokyo, Japan) by measuring the absorbance at 340 nm. A control was carried out with 0.1 M phosphate buffer (pH 7) instead of sample solution. For the blank, the glucosidase solution was replaced with distilled water. The glucosidase inhibitory rates of tested samples were calculated as; Inhibitory rate (%) = 100 − [(Asample − Ablank)/(Acontrol − Ablank)] × 100(1) where Asample, Acontrol, and Ablank is the absorbance of the tested sample, control, and blank, respectively. The experimental data are represented as IC50 (μM) values.

[2] = test system: AGE formation in human serum albumin (HSA)/glucose or fructose; assay: Inhibitory effect on AGE formation (HSA with glucose or fructose, fluorescence); format: biochemical; settings: 60 °C, 40 h, means ± SE (n = 3)
Procedure: The antiglycation effects of compounds isolated from TBE and several other related compounds were evaluated based on their AGE inhibitory activities as described previously, with slight modifications. Briefly, the sample solution was added to a reaction mixture containing 83.3 mM phosphate buffer (pH 7.2), 2.0 M glucose, 2.0 M fructose, 8.0 mg/mL human serum albumin (HSA), and distilled water (6:1:1:1:1, v/v). As a control, the vehicle was supplemented instead of the sample solution. For each blank, glucose or fructose was replaced with distilled water, and the total volume was set to 1000 μL. After incubation of the sample mixture at 60 °C for 40 h, the solutions were diluted 8-fold with distilled water, dispensed into a black microplate in 200 µL portions, and their fluorescence intensities were measured at excitation and emission wavelengths of 370 and 465 nm, respectively, using a Power Scan HT (DS Pharma Biomedical Co. Ltd., Osaka, Japan). The inhibitory rate was calculated as; Inhibitory rate (%) = 100 − [(S − SB)/(C − CB)] × 100(2) where S is the relative intensity of the sample solution, C is the relative intensity of the control solution, and SB and CB are the intensities of the glucose or fructose-omitted blank solutions. The experimental data are represented as IC50 (μM) values.

[3] = AGE-derived crosslink-cleaving effect (PPD cleavage to benzoic acid, HPLC); settings: for Crosslink-Cleaving Activities Relative Ratio: tested samples 100 μg/mL, relative to PTB = 100, means ± SE (n = 3); for AGE cross-link cleaving activity (in words): compared with positive control PTB
Procedure: The AGE crosslink-cleaving activity of the same samples was evaluated according to the previously described method by Kato et al. with a slight modification. Briefly, the 1 mg/mL of tested samples prepared with H2O were mixed with 1.13 mM PPD solution in MeOH:50 mM phosphate buffer (pH 7.4) (1:1) and incubated at 37 °C for 4 h. After 4 h, the reaction was stopped with 200 μL of 2 M HCl, then the stopped reaction mixtures were centrifuged at 8200× g for 5 min. The amount of benzoic acid in the supernatant was measured by reversed-phase HPLC. The following conditions were applied: column, InertSustain C18 column (150 mm × 4.6 i.d mm., 5 μm); mobile phase, 50 mM phosphate buffer (pH 2.2):CH3CN (80:20) (solvent A) and 50 mM phosphate buffer (pH 2.2):CH3CN (50:50) (solvent B), the gradient program, 0–20 min (solvent B: 0–25%), 20–25 min (solvent B: 25–100%), 25–36 min (solvent B: 100–25%); column temperature, 40 °C; detection, UV at 230 nm; flow rate, 1.0 mL/min. These cleaving effects were calculated as equivalents to benzoic acid.

α-glucosidase [4] = target: α-glucosidase; parameters: method as in earlier work; settings: cited from earlier work; for IC50: table lines marked with reference 8, means ± SE (n = 3), read-out: Inhibitory Effects on α-Glucosidase Activity IC50; for Inhibitory activity on α-glucosidase (in words): ellagitannin dimers isolated from T. japonica
[5] = HSA/fructose, read-out: Inhibitory Effects on AGE Formation IC50, Fructose
[6] = HSA/glucose, read-out: Inhibitory Effects on AGE Formation IC50, Glucose

Molecule | IC50 (α-glucosidase [1]) [µM] | IC50 [2, 5] [µM] | IC50 [2, 6] [µM] | Crosslink-Cleaving Activities Relative Ratio [3] | IC50 (α-glucosidase [4]) [µM] | α-Glucosidase inhibitory activity (in words) (α-glucosidase [1]) | AGE cross-link cleaving activity (in words) [3] | Inhibitory activity on α-glucosidase (in words) (α-glucosidase [4])
O=C(OC[C@H]1O[C@@H](OC(=O)c2cc(O)c(O)c(O)c2)[C@H](OC(=O)c2cc(O)c(O)c(O)c2)[C@@H](OC(=O)c2cc(O)c(O)c(O)c2)[C@@H]1OC(=O)c1cc(O)c(O)c(O)c1)c1cc(O)c(O)c(O)c1 [1,2,3,4,6-Penta-O-galloyl-β-D-glucose, reference compound] | 59 ± 0.4 | 0.2 | 0.2 | 97.9 ± 2.1 | – | – | – | –
N=C(N)NN [Aminoguanidine, aminoguanidine hydrochloride, reference compound] | – | 801 ± 17.7 | 259 ± 6.8 | – | – | – | – | –
O=C(OC[C@H]1O[C@@H](O)[C@H](OC(=O)c2cc(O)c(O)c(O)c2)[C@@H](O)[C@@H]1O)c1cc(O)c(O)c(O)c1 [Compound 1, 2,6-di-O-galloyl-β-D-glucose] | – | 3.3 | 1.5 ± 0.1 | 77.4 ± 4.0 | – | – | – | –
O=C(O[C@@H]1O[C@H](CO)[C@@H](O)[C@H](OC(=O)c2cc(O)c(O)c(O)c2)[C@H]1OC(=O)c1cc(O)c(O)c(O)c1)c1cc(O)c(O)c(O)c1 [Compound 2, 1,2,3-tri-O-galloyl-β-D-glucose] | – | 0.4 | 0.4 | 190.5 ± 2.5 | > 100 | – | – | –
O=C(OC[C@H]1O[C@@H](OC(=O)c2cc(O)c(O)c(O)c2)[C@H](OC(=O)c2cc(O)c(O)c(O)c2)[C@@H](O)[C@@H]1O)c1cc(O)c(O)c(O)c1 [Compound 3, 1,2,6-tri-O-galloyl-β-D-glucose] | – | 0.4 | 0.3 | 146.6 ± 12.6 | > 100 | – | – | –
O=C(OC[C@H]1O[C@@H](O)[C@H](OC(=O)c2cc(O)c(O)c(O)c2)[C@@H](OC(=O)c2cc(O)c(O)c(O)c2)[C@@H]1O)c1cc(O)c(O)c(O)c1 [Compound 4, 2,3,6-tri-O-galloyl-β-D-glucose] | – | 1 | 0.3 | – | – | – | – | –
O=C(OC[C@H]1O[C@@H](OC(=O)c2cc(O)c(O)c(O)c2)[C@H](OC(=O)c2cc(O)c(O)c(O)c2)[C@@H](OC(=O)c2cc(O)c(O)c(O)c2)[C@@H]1O)c1cc(O)c(O)c(O)c1 [Compound 5, 1,2,3,6-tetra-O-galloyl-β-D-glucose] | – | 0.3 | 0.3 | 209.0 ± 33.7 | > 100 | – | – | –
O=C(OC[C@H]1O[C@@H](OC(=O)c2cc(O)c(O)c(O)c2)[C@H](OC(=O)c2cc(O)c(O)c(O)c2)[C@@H](O)[C@@H]1OC(=O)c1cc(O)c(O)c(O)c1)c1cc(O)c(O)c(O)c1 [Compound 6, 1,2,4,6-tetra-O-galloyl-β-D-glucose] | > 100 | 0.3 | 0.3 | 159.6 ± 12.7 | – | – | – | –
O=C(OC1O[C@@H]2COC(=O)c3cc(O)c(O)c(O)c3-c3c(cc(O)c(O)c3O)C(=O)O[C@H]2[C@H](OC(=O)c2cc(O)c(O)c(O)c2)[C@H]1OC(=O)c1cc(O)c(O)c(O)c1)c1cc(O)c(O)c(O)c1 (stereo partly shown) [Compound 7, tellimagrandin II] | – | 0.3 | 0.2 | 230.8 ± 12.2 | > 100 | – | – | –
O=C(O[C@@H]1O[C@@H]2COC(=O)c3cc(Oc4ccc(O)c(O)c4O)c(O)c(O)c3-c3c(cc(O)c(O)c3O)C(=O)O[C@H]2[C@H](OC(=O)c2cc(O)c(O)c(O)c2)[C@H]1OC(=O)c1cc(O)c(O)c(O)c1)c1cc(O)c(O)c(O)c1 [Compound 8, decarboxylated rugosin A] | 20.7 ± 0.1 | 0.3 | 0.3 | 233.0 ± 5.8 | – | – | – | –
O=C(O[C@@H]1O[C@@H]2COC(=O)c3cc(Oc4c(C(=O)O[C@H]5C(O)O[C@@H]6COC(=O)c7cc(O)c(O)c(O)c7-c7c(cc(O)c(O)c7O)C(=O)O[C@H]6[C@@H]5OC(=O)c5cc(O)c(O)c(O)c5)cc(O)c(O)c4O)c(O)c(O)c3-c3c(cc(O)c(O)c3O)C(=O)O[C@H]2[C@H](OC(=O)c2cc(O)c(O)c(O)c2)[C@H]1OC(=O)c1cc(O)c(O)c(O)c1)c1cc(O)c(O)c(O)c1 (stereo partly shown) [Compound 9, camptothin B] | > 100 | 0.2 | 0.1 | 180.6 ± 4.2 | – | – | – | –
COc1cc(C2Oc3c(OC)cc(CCCO)cc3C2COC2OC(CO)C(O)C(O)C2O)ccc1O [Compound 10, (7′S,8′R)-dihydrodehydrodiconiferyl alcohol-9′-O-β-D-glucoside] | > 100 | > 1000 | > 500 | 16.7 ± 1.4 | – | no inhibitory activity | – | –
O=c1oc2c(Oc3ccc(O)c(O)c3O)c(O)cc3c(=O)oc4c(O)c(O)cc1c4c23 [Compound 11, rubuphenol] | > 100 | 4.7 ± 0.3 | 2.4 | 514.8 ± 11.2 | – | no inhibitory activity | remarkable activities | –
O=c1oc2c(O)c(Oc3ccc(O)c(O)c3O)cc3c(=O)oc4c(O)c(O)cc1c4c23 [Compound 12, eschweilenol A] | > 100 | 2.9 ± 0.1 | 2.4 | 484.5 ± 12.5 | – | no inhibitory activity | remarkable activities | –
COc1cc([C@H]2Oc3c(OC)cc(CCCO)cc3[C@@H]2CO)ccc1O [Compound 13] | > 100 | > 1000 | > 500 | 17.2 ± 1.1 | – | no inhibitory activity | – | –
O=c1oc2c(O)c(O)cc3c(=O)oc4c(O)c(O)cc1c4c23 [Ellagic acid, reference compound] | > 100 | 2.5 ± 0.1 | 1.8 ± 0.1 | 11.4 ± 0.1 | – | little effect | – | –
O=C(O)c1cc(O)c(O)c(O)c1 [Gallic acid] | – | 27 ± 2.6 | 14.7 ± 2 | 720.1 ± 54.1 | > 100 | little effect | remarkable activities | –
O=C(C[n+]1ccsc1)c1ccccc1.[Br-] [N-Phenacylthiazolium bromide (PTB), N-phenacylthiazolium bromide, reference compound] | – | – | – | 100 | – | – | – | –
O=C(O[C@@H]1O[C@@H]2COC(=O)c3cc(Oc4c(C(=O)O[C@@H]5O[C@@H]6COC(=O)c7cc(O)c(O)c(O)c7-c7c(cc(O)c(O)c7O)C(=O)O[C@H]6[C@H](OC(=O)c6cc(O)c(O)c(O)c6)[C@H]5OC(=O)c5cc(O)c(O)c(O)c5)cc(O)c(O)c4O)c(O)c(O)c3-c3c(cc(O)c(O)c3O)C(=O)O[C@H]2[C@H](OC(=O)c2cc(O)c(O)c(O)c2)[C@H]1OC(=O)c1cc(O)c(O)c(O)c1)c1cc(O)c(O)c(O)c1 [rugosin D, reference compound] | – | – | – | – | – | – | – | comparable to that of acarbose
Cornusiin G [reference compound] | – | – | – | – | 6.3 ± 0.1 | – | – | comparable to that of acarbose
